Test results as given in ChEMBL document CHEMBL1201862, “PubChem BioAssay data set” (2004).
The source made the active and inactive calls.

How the values were obtained:
Estrogen receptor = target: T1, Estrogen receptor (Homo sapiens, UniProt P03372);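 also: potency for inhibiting coactivator peptide recruitment to the receptor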
T1 sequence (P03372 whole entry): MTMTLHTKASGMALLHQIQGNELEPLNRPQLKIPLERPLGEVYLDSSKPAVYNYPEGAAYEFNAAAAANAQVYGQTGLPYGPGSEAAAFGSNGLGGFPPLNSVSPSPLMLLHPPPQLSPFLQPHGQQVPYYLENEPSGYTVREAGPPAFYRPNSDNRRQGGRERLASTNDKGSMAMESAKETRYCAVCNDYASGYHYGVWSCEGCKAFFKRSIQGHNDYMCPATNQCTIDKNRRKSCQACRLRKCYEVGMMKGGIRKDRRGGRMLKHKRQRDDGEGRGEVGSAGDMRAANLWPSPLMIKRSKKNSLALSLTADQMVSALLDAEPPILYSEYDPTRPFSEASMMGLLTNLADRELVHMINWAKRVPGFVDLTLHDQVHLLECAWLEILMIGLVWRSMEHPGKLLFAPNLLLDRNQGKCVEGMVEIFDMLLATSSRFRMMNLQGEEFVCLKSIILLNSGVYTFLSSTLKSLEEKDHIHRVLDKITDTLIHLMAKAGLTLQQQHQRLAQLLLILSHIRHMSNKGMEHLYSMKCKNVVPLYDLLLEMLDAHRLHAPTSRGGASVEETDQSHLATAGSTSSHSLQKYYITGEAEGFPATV

[1] = target: Eukaryotic translation initiation factor 4E (Mus musculus, UniProt P63073); assay: blockers of eIF4G binding by eIF4E – biochemical, TR-FRET, dose response (AID 855); format: functional;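 also: potency for disrupting eIF4E binding to eIF4GI seen as loss of FRET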
[2] = Luminescence Cell-Based Dose Confirmation HTS to Identify Activators of 5'UTR Stem-Loop Driven Alpha-Synuclein mRNA Translation in H4 Neuroglioblastoma Cells. [Related pubchem assays: 1829 (Project Summary), 1814 (Primary HTS)]; format: functional
H4 = assay: Luminescence Cell-Based Dose Response HTS to Identify Activators of 5'UTR Stem-Loop Driven Prion Protein mRNA Translation in H4 Neuroglioblastoma Cells. [Related pubchem assays: 1829 (Project Summary), 1814 (Primary HTS)]; format: functional; settings: Homo sapiens
[3] = target: T2, Rac GTPase-activating protein 1 (Homo sapiens, UniProt Q9H0H5); assay: blockers of MgcRacGAP-driven Rac1 GTP hydrolysis – biochemical, ADP Hunter fluorescence, primary and confirmatory, confirmation (AID 624330); format: functional
T2 sequence (Q9H0H5 whole entry): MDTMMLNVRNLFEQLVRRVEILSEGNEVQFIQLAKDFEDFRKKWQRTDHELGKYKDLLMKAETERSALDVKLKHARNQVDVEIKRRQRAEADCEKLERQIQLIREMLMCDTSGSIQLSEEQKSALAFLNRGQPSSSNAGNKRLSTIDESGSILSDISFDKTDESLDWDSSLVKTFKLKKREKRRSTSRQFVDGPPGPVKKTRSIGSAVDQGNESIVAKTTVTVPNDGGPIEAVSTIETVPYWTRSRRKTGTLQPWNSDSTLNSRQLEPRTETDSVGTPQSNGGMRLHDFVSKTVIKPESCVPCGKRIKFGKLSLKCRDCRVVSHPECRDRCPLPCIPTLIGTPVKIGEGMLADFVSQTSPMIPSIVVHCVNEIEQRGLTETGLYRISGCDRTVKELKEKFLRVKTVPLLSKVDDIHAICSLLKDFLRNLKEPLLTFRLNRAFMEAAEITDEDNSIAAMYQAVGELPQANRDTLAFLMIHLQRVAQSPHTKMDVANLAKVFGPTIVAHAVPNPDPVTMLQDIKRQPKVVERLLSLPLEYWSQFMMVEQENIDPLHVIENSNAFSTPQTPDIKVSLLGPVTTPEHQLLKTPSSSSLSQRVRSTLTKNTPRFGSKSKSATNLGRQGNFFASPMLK

[4] = Luminescence Cell-Based Dose Response HTS to Identify Activators of Luciferase Translation or Activity in H4 […] Cells. [Related pubchem assays: 1829 (Project Summary), 1814 (Primary HTS)]; format: functional
[5] = Luminescence Cell-Based Dose Retest to Confirm Inhibitors of Cancer Stem Cells. [Related pubchem assays (depositor defined):AID2717, AID2721]; format: functional; settings: Homo sapiens
Beta-galactosidase = Beta-galactosidase (Escherichia coli, UniProt Q8VNN2); assay: PubChem AID 485352; format: functional
[6] = target: T3, Type-1 angiotensin II receptor (Homo sapiens, UniProt P30556); assay: antagonism of angiotensin II type 1 receptor – cell-based, uHTS hits, selectivity assay for APJ receptor antagonist project, dose response (AID 463214); format: functional;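 also: antagonist potency against angiotensin II stimulated AT1 response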
T3 sequence (P30556 whole entry): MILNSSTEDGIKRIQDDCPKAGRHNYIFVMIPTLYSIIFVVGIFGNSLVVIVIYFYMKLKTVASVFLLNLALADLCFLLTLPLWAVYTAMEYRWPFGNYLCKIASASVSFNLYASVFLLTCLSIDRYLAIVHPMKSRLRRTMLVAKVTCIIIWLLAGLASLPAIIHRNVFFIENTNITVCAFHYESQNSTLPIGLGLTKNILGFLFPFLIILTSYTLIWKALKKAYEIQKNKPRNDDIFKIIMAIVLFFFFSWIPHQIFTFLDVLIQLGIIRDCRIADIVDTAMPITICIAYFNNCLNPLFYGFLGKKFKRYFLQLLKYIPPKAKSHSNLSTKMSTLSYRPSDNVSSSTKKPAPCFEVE

[7] = target: T4, Alkaline phosphatase, tissue-nonspecific isozyme (Homo sapiens, UniProt P05186); assay: potency against alkaline phosphatase TNAP – biochemical, luminescent, dose response, SAR follow-up (AID 1056)
T4 sequence (P05186 whole entry): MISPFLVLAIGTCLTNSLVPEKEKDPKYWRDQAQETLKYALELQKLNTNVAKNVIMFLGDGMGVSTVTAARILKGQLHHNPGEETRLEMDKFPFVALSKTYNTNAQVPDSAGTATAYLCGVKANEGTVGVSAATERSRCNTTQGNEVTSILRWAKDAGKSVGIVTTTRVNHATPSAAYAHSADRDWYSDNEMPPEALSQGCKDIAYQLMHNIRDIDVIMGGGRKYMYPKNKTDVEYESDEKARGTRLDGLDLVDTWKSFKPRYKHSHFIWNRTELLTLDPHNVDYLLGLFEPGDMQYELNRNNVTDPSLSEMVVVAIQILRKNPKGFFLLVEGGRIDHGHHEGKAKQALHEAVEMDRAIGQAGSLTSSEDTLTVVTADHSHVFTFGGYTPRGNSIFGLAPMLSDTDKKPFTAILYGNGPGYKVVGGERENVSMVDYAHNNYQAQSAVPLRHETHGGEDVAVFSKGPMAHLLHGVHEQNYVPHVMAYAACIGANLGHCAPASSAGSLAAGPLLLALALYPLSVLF

[8] = target: Glyceraldehyde-3-phosphate dehydrogenase (Homo sapiens, UniProt P04406)
[9] = target: Alkaline phosphatase, placental type (Homo sapiens, UniProt P05187); assay: human placental alkaline phosphatase inhibition – biochemical, luminescence, confirmation (AID 1512); format: functional
[10] = target: Peroxisome proliferator-activated receptor gamma/Nuclear receptor coactivator 1 (Homo sapiens, UniProt P37231); assay: (§1) TR-FRET dose response biochemical High Throughput Screening assay for agonists of the steroid receptor coactivator 1 (SRC-1) recruitment by the peroxisome proliferator-activated receptor gamma (PPAR gamma): non-selective agonists. [Related pubchem assays (depositor defined):AID1300, AID1808, AID504735, AID631]; format: protein assay
[11] = target: Peroxisome proliferator-activated receptor gamma/Nuclear receptor coactivator 3 (Homo sapiens, UniProt P37231); assay: as §1, with “3 (SRC-3)” for “1 (SRC-1)”, “assays: 1301 (Confirmation screen.), 1048 (Primary screen.)]” for “assays (depositor defined):AID1300, AID1808, AID504735, AID631]”; format: functional
[12] = target: Peroxisome proliferator-activated receptor gamma/Nuclear receptor coactivator 2 (Homo sapiens, UniProt P37231); assay: TR-FRET dose response biochemical High Throughput Screening assay for agonists of the steroid receptor coactivator 2 (SRC-2) recruitment by the peroxisome proliferator-activated receptor gamma (PPAR gamma): non-selective agonists. [Related pubchem assays: 1297, 1032 ]; format: functional
INS1 = assay: INS-1E survival protection against cytokine death – cell-based, luminescence, retest, dose response (AID 449756); format: functional; settings: Rattus norvegicus;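 also: cell death triggered by IL-1 beta plus TNF-alpha plus IFN-gamma mixture; protective hits raise ATP signal compared with cytokine alone wells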

Beta-galactosidase, sequence (Q8VNN2 whole entry): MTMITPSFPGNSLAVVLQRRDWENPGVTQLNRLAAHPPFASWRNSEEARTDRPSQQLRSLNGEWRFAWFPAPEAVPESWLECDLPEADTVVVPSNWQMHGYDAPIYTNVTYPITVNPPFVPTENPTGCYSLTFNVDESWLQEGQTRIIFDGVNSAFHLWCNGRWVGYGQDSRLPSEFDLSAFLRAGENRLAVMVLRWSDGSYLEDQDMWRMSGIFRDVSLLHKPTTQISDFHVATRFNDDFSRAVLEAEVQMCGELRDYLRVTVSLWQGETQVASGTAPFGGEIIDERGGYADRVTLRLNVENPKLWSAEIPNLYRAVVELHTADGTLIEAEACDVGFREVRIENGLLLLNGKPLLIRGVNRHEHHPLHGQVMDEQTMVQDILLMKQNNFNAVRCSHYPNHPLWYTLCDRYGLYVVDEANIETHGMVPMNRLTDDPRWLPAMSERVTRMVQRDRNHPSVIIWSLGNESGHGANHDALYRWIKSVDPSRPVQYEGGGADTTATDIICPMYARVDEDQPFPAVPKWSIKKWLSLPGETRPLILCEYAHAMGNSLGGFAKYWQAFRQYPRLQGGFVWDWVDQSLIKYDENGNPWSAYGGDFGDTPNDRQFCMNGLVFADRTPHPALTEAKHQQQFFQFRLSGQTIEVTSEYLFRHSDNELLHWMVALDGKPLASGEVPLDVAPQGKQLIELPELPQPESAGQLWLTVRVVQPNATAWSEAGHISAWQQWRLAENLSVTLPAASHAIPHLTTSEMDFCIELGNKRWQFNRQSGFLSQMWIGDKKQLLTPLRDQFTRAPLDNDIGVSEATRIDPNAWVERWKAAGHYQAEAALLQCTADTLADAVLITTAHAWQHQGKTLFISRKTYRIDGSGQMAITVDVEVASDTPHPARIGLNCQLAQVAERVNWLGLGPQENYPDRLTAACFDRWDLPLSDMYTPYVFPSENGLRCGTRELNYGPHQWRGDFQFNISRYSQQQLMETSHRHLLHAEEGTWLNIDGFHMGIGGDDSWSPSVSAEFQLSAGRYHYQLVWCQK
Glyceraldehyde-3-phosphate dehydrogenase, sequence (P04406 whole entry): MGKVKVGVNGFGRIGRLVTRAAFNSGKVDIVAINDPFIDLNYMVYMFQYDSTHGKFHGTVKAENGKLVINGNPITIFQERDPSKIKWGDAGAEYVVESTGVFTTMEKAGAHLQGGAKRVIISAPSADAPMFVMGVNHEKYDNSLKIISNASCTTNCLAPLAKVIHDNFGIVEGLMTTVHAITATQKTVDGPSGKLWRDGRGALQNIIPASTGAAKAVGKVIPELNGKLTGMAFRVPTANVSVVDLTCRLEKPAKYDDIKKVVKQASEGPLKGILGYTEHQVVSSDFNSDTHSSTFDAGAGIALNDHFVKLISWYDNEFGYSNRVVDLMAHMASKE
Peroxisome proliferator-activated receptor gamma/Nuclear receptor coactivator 1, sequence (P37231 whole entry): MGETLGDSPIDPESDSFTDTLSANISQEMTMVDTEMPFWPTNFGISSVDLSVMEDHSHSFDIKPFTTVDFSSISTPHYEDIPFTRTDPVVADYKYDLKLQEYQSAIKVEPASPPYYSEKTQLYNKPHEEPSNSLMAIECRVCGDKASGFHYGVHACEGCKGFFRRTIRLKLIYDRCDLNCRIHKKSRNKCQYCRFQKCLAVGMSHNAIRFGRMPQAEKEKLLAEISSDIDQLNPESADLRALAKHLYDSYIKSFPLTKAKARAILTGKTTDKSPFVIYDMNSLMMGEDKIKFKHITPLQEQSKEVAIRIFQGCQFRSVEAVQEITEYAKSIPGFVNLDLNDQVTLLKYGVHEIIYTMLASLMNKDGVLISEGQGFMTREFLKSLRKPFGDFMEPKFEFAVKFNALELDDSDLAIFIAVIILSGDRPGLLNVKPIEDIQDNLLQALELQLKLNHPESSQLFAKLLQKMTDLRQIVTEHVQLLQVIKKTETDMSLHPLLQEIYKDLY
Peroxisome proliferator-activated receptor gamma/Nuclear receptor coactivator 1, sequence (Q15788 whole entry, further chain): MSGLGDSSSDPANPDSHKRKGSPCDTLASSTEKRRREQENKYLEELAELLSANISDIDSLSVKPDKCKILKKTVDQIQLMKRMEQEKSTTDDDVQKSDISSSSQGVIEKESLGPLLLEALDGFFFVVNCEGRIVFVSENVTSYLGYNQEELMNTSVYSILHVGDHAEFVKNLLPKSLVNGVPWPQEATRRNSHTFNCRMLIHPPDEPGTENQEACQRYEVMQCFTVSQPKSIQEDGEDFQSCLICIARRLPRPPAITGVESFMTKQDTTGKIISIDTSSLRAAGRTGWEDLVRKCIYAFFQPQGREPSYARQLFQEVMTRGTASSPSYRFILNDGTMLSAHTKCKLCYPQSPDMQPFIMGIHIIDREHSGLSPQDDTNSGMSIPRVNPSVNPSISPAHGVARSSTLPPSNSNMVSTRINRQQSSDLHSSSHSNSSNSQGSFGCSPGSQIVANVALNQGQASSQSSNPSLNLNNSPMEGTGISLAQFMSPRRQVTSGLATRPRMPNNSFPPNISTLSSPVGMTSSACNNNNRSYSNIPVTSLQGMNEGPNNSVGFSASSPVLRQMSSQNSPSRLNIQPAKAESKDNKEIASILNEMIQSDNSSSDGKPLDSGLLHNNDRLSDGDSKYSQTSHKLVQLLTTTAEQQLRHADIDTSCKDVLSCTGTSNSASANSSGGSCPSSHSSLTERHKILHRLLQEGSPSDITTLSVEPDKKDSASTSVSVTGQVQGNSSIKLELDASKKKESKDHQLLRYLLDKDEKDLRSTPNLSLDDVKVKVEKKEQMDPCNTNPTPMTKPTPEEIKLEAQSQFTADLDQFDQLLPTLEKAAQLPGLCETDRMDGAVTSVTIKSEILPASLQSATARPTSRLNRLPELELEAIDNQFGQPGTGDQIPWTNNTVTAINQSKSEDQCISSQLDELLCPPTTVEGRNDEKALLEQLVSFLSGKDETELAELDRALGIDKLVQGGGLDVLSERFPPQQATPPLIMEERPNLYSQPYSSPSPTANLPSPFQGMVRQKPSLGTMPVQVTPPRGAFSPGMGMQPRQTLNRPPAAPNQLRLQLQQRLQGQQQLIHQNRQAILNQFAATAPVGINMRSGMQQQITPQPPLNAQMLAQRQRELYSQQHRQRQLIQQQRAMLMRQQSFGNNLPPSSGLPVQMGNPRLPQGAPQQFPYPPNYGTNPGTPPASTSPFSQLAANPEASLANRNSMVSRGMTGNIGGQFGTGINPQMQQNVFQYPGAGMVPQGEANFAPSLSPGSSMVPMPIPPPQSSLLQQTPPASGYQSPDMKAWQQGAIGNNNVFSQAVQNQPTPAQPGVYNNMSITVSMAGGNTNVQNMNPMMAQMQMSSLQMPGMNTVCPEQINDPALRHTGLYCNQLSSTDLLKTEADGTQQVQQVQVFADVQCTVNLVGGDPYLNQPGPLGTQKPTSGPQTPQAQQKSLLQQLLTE
Alkaline phosphatase, placental type, sequence (P05187 whole entry): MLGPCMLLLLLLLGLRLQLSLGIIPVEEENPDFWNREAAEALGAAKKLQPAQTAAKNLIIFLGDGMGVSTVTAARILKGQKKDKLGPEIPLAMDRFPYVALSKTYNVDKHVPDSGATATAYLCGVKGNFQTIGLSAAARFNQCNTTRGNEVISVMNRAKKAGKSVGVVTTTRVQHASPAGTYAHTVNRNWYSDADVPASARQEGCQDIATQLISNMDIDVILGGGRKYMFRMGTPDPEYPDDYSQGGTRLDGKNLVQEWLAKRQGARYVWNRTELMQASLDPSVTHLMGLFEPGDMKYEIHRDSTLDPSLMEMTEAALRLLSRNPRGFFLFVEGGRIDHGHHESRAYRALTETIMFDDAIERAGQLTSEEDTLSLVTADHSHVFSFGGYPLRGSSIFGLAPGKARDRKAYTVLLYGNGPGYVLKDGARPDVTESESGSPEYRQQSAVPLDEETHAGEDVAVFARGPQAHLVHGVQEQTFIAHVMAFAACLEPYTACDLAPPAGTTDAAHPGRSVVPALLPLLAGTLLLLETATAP
Eukaryotic translation initiation factor 4E, sequence (P63073 whole entry): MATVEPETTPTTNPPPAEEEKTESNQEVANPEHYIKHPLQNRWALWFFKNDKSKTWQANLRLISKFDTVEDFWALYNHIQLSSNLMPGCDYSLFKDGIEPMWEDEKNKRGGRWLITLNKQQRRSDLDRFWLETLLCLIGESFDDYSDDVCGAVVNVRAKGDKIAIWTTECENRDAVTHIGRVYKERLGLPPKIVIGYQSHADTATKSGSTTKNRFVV

COC(=O)COc1ccc(S(=O)(=O)Nc2ccc3c(c2)OCO3)cc1
IC50 (Estrogen receptor): > 50 µM (not active) | IC50 [1]: > 64 µM (inactive)

CN(C)c1ccc2c(c1)N=C(c1ccco1)OP2(=S)N1CCOCC1 (stereo not drawn)
EC50 [2]: 15.7 µM (active) | EC50 (H4): 49.6 µM (active) | IC50 [3]: 179 µM (active) | IC50 [1]: > 64 µM (inactive) | EC50 [4]: 17.9 µM (active)

O=C(NNc1ccc(-c2csnn2)cc1)c1cc(Cl)cc(Cl)c1
AC50 [5]: 2.15 µM (active) | EC50 (Beta-galactosidase): > 40 µM (inactive) | IC50 [6]: 2.43 µM (active)

O=S(=O)(Nc1cccnc1)c1cc(Cl)ccc1Cl
IC50 [7]: > 100 µM (inactive) | IC50 [8]: > 100 µM (not active)

O=C1c2cccc(F)c2C(=O)N1c1nnc(Cc2ccccc2)[nH]1
IC50 [9]: > 100 µM (inactive) | IC50 [7]: 0.353 µM (active) | IC50 [8]: > 100 µM (not active)

CCc1c(C(=O)NNC(=S)NCC2CCCO2)csc1C (stereo not drawn)
IC50 [9]: > 100 µM (inactive)

CC1(C)CC(=O)c2c(n[nH]c2-c2cccnc2)C1
IC50 [9]: > 100 µM (inactive) | IC50 [7]: 13.3 µM (active) | IC50 [8]: > 100 µM (not active)

O=C(CSc1ncnc2c1oc1ccccc12)NC1CCCCC1
EC50 [10]: 9.85 µM (active) | EC50 [11]: > 79.4 µM (not active) | EC50 [12]: 14.4 µM (not active)

COc1ccc(CNC(=O)CSc2nc(-c3ccccc3)cc(-c3cccs3)c2C#N)cc1
EC50 [10]: 22.9 µM (inactive) | EC50 [11]: > 79.4 µM (not active) | EC50 [12]: 22.2 µM (not active)

O=C(O)c1ccc2c(c1)C(=O)N(c1nc(-c3cccnc3)n[nH]1)C2=O
IC50 [7]: > 100 µM (inactive) | IC50 [8]: > 100 µM (not active)

CCOC(=O)c1sc2nc(C)nc(S)c2c1C
EC50 [10]: 162 µM (inactive) | EC50 [11]: > 79.4 µM (not active) | EC50 [12]: 37.3 µM (not active)

COc1ccc(CC(=O)OCC(=O)c2ccc(S(=O)(=O)N3CCCCC3)cc2)cc1
EC50 (Beta-galactosidase): > 40 µM (inactive) | IC50 [6]: 20 µM (not active)

Nc1nc(COc2ccccc2)n(-c2ccccc2)n1
IC50 [9]: > 100 µM (inactive) | IC50 [7]: > 100 µM (inactive) | IC50 [8]: > 100 µM (not active)

COc1ccc2c(c1)C(=O)[C@H](O)[C@@H](c1ccc(OC)c(Br)c1)O2
AC50 [5]: 7.62 µM (active) | EC50 (Beta-galactosidase): > 40 µM (inactive) | IC50 [6]: 12.1 µM (active) | AC50 (INS1): 3.71 µM (active)

CCNC(=S)NNC(=O)c1cc(C2CC2)nc2ccccc12
IC50 [9]: > 100 µM (inactive)

Cc1ccc(-n2c(S)nnc2-c2cccc(C)c2)cc1
EC50 [10]: 70.8 µM (inactive) | EC50 [11]: > 79.4 µM (not active) | EC50 [12]: 40.1 µM (not active)

O=C1CC(Sc2nnc(-c3ccccc3)o2)C(=O)N1c1ccccc1 (stereo not drawn)
EC50 [10]: > 79.4 µM (inactive) | EC50 [11]: > 79.4 µM (not active) | EC50 [12]: 89.2 µM (not active)

O=C(CSc1nnc(-c2ccccc2)[nH]1)c1ccc(O)cc1O
IC50 [9]: > 100 µM (inactive) | IC50 [7]: 3.71 µM (active)
